Test results: patent publication US20230255934A1, “NURR1 RECEPTOR MODULATORS AND USES THEREOF” (The Regents of the University of California, priority 2020, published 2023)

Tests used:
[1] = target: T1, full-length Nurr1 (NBRE response element) (Mus musculus, UniProt Q06219); experiment: Full-length Nurr1 NBRE luciferase reporter assay in MN9D cells; assay type: cell-based; conditions: 6 h treatment
T1 construct: a cell line derived from dopaminergic neurons which endogenously expresses full length Nurr1 and its target genes; endogenous in cells; host or cells: MN9D TET-ON cells
T1 sequence (Q06219 whole entry): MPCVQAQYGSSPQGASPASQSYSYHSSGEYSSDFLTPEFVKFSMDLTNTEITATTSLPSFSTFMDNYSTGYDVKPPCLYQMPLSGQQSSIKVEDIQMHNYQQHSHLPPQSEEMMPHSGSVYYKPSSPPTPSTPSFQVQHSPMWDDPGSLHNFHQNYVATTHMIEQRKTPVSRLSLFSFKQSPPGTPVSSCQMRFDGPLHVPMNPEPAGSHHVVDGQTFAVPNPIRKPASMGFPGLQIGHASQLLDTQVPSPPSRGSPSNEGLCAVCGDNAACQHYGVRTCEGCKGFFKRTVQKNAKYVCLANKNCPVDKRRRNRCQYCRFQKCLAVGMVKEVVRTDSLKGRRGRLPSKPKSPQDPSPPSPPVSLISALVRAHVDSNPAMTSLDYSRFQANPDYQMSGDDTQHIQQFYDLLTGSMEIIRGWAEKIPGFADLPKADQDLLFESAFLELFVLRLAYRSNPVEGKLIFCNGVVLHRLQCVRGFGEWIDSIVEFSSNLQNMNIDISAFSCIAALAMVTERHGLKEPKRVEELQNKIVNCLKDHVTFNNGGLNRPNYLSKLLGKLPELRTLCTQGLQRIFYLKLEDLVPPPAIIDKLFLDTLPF
Procedure: Luciferase Reporter Assays. These assays were executed using standard protocols. MN9D TET-ON cells (P5) were grown for 60-72 h (see above) before being seeded at 1-10^5 cell/well in 24-well plate in DMEM/F12+5% TET-ON approved FBS 3 h before transfection. Cells were transfected using Lipofectamine 2000 (Invitrogen) and plasmid DNAs according to manufacturer's instructions. Lipofectamine/DNA complexes were prepared in Opti-Mem medium (Gibco) and incubated with cells overnight. The Nurr1-LBD_Gal4-DBD expressing plasmid was prepared by subcloning the Nurr1 LBD fragment into […] plasmid (Clontech) containing GAL4 DBD. The reporter plasmid pGL4.35 (luc2P/9XGAL4 UAS/Hygro) Vector (Promega) contains nine repeats of GAL4 UAS (Upstream Activator Sequence) and drives transcription of the luciferase reporter gene luc2P in response to binding of Nurr-LBD_Gal4-DBD chimeric protein. The pRL-null (Promega) plasmid expressing renilla luciferase was used as an internal control. […] Alternatively, cells were co-transfected with the reporter plasmid NBREx3-POMC-Luc containing three copies of the NBRE sequence ([NT] ID NO:23)) subcloned into the pXP1-luc plasmid containing the minimal (positions -34 to +63) POMC promoter as described previously^7, and the pRL-null plasmid. […] Transfected cells were treated with increasing concentrations of 5-chloroindole or vehicle only for 6 h, after which time the media was aspirated and luciferase activity was measured. Cells from each well were incubated for 15 min with 220 μL/well of Dual-Glo® Luciferase Reagent (Promega) at room temperature upon rotation on the orbital shaker. […] Resulting solutions were transferred to a white opaque 96-well plate (65 μL/well; 3 wells/sample) and firefly luciferase activity was measured using Veritas Microplate Luminometer (Turner BioSystems, Sunnyvale, Calif.). […] Renilla luciferase activity was measured after 20 min of incubation of the plate inside the luminometer. Experimental values are expressed as the average of firefly/renilla luciferase activity±standard deviation (for three independent biological replicates). […]

[2] = target: Nurr1 ligand binding domain (LBD) (Homo sapiens, UniProt P43354); conditions: non-canonical ligand binding pocket, Cys566; cited from earlier work
Chain of Nurr1 ligand binding domain (LBD) (P43354 360-595 limits assumed): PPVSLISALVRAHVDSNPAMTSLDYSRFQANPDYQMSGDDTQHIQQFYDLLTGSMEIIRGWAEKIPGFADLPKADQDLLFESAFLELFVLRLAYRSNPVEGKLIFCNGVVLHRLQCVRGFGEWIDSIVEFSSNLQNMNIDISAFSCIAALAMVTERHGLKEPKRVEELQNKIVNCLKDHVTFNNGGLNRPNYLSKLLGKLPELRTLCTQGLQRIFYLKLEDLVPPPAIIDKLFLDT

th and vmat2 expression = conditions: zebrafish; cited from earlier work

## N#Cc1ccc2[nH]ccc2c1 [5-cyanoindole, reference compound]
[1]
  Luciferase production, full-length Nurr1 NBRE reporter: perform as expected

## CCN(CC)Cc1cc(Nc2ccnc3cc(Cl)ccc23)ccc1O [amodiaquine, reference compound]
[1]
  Luciferase production, full-length Nurr1 NBRE reporter: perform as expected

## Oc1cc2cc[nH]c2cc1O [DHI, 5,6-dihydroxyindole]
[2]
  Binding to the Nurr1 LBD (in words): forming a reversible covalent adduct with the side chain of Cys566
Th and vmat2 expression
  Expression of th and vmat2: stimulates the expression of th and vmat2
